Key:
Experiment in all cases: Postemergence herbicidal activity, greenhouse, visual injury
Format in all cases: in vivo
[1] = test system: winter wheat (Triticum aestivum, TRZAW); conditions: post-emergence, read-out: Effect (% visual injury) Obs
Experimental: (§1) The plants were grown for 7-36 days (d) in a greenhouse with an approximate 14-hour (h) photoperiod which was maintained at about 23° C. during the day and 22° C. during the night. Nutrients and water were added on a regular basis and supplemental lighting was provided with overhead metal halide 1000-Watt lamps as necessary. The plants were employed for testing when they reached the second or third true leaf stage.
(§2) Spray solutions of the experimental compound mixtures were prepared by adding the stock solutions to the appropriate amount of dilution solution to form a 12 mL spray solution in two-way combinations. […] Control plants were sprayed in the same manner with the solvent blank. Application rates for component (a) are in g ae/ha, and application rates for component (b) are in g ai/ha.
(§3) The treated plants and control plants were placed in a greenhouse as described above and watered by sub-irrigation to prevent wash-off of the test compounds. After 20-22 d, the condition of the test plants as compared with that of the control plants was determined visually and scored on a scale of 0 to 100 percent where 0 corresponds to no injury and 100 corresponds to complete kill. […] The Colby method was used to determine the herbicidal effects expected from the mixtures.

[2] = test system: giant foxtail (Setaria faberi, SETFA); conditions: post-emergence, read-out: Effect (% visual injury) Obs
Experimental: as §1, §2, §3

[3] = test system: large crabgrass (Digitaria sanguinalis, DIGSA); conditions: post-emergence, read-out: Effect (% visual injury) Obs
Experimental: as §1, §2, §3

[4] = test system: wild pansy (Viola tricolor, VIOTR); conditions: post-emergence, read-out: Effect (% visual injury) Obs
Experimental: as §1, §2, §3

[5] = test system: barnyardgrass (Echinochloa crus-galli, ECHCG); conditions: post-emergence, read-out: Effect (% visual injury) Obs
Experimental: as §1, §2, §3

[6] = test system: blackgrass (Alopecurus myosuroides, ALOMY); conditions: post-emergence, read-out: Effect (% visual injury) Obs
Experimental: as §1, §2, §3

[7] = test system: wild buckwheat (Polygonum convolvulus, POLCO); conditions: Fallopia convolvulus, post-emergence, read-out: Effect (% visual injury) Obs
Experimental: as §1, §2, §3

[8] = test system: rice (Oryza sativa, ORYSA); conditions: post-emergence, read-out: Effect (% visual injury) Obs
Experimental: as §1, §2, §3

[9] = test system: velvetleaf (Abutilon theophrasti, ABUTH); conditions: post-emergence, read-out: Effect (% visual injury) Obs
Experimental: as §1, §2, §3

[10] = test system: pigweed (Amaranthus retroflexus, AMARE); conditions: post-emergence, read-out: Effect (% visual injury) Obs
Experimental: as §1, §2, §3

maize (Zea mays, ZEAMX) = conditions: post-emergence, read-out: Effect (% visual injury) Obs
Experimental: as §1, §2, §3

[11] = test system: wild oat (Avena fatua, AVEFA); conditions: post-emergence, read-out: Effect (% visual injury) Obs
Experimental: as §1, §2, §3

[12] = test system: poinsettia (Euphorbia heterophylla, EPHHL)
Experimental: (§4) Seeds of the desired test plant species were planted in Sun Gro MetroMix® 306 planting mixture, which typically has a pH of 6.0 to 6.8 and an organic matter content of about 30 percent, in plastic pots with a surface area of 103.2 square centimeters (cm^2). When required to ensure good germination and healthy plants, a fungicide treatment and/or other chemical or physical treatment was applied. The plants were grown for 7-36 days (d) in a greenhouse with an approximate 14-hour (h) photoperiod which was maintained at about 23° C. during the day and 22° C. during the night. Nutrients and water were added on a regular basis and supplemental lighting was provided with overhead metal halide 1000-Watt lamps as necessary. The plants were employed for testing when they reached the second or third true leaf stage.
(§5) An emulsifiable concentrate (EC) formulation containing Compound 1 at 100 gai/L was prepared by combining Compound 1 with 1-butyl-2-pyrrolidinone (Tamisolve NxG; 360.5 g/L), benzyl acetate (544.6 g/L) and Agnique MBL 520L surfactant (52.9 g/L). […] The concentrated stock solution was diluted with an aqueous mixture of 1.5% v/v of Agri-dex crop oil concentrate to provide the appropriate application rates. Compound requirements are based upon a 12 milliliter (mL) application volume at a rate of 187 liters per hectare (L/ha). Spray solutions of the experimental compound mixtures were prepared by adding the stock solutions to the appropriate amount of dilution solution to form a 12 mL spray solution in two-way combinations. Formulated compounds were applied to the plant material with an overhead Mandel track sprayer equipped with 8002E nozzles calibrated to deliver 187 L/ha over an application area of 0.503 square meters (m^2) at a spray height of 18 inches (43 centimeters (cm)) above average plant canopy. Control plants were sprayed in the same manner with the solvent blank. Application rates for component (a) are in g ae/ha, and application rates for component (b) are in g ai/ha.
as §3

[13] = test system: chickweed (Stellaria media, STEME); conditions: post-emergence, read-out: Effect (% visual injury) Obs
Experimental: as §4, §5, §3

[14] = test system: winter rape (Brassica napus, BRSNW); conditions: post-emergence, read-out: Effect (% visual injury) Obs
Experimental: as §4, §5, §3

[15] = test system: sunflower (Helianthus annuus, HELAN); conditions: post-emergence, read-out: Effect (% visual injury) Obs
Experimental: as §1, §2, §3

[16] = test system: common lambsquarters (Chenopodium album L., CHEAL); conditions: post-emergence, read-out: Effect (% visual injury) Obs
Experimental: as §1, §2, §3

[17] = test system: soybean (Glycine max, GLXMA); conditions: post-emergence, read-out: Effect (% visual injury) Obs
Experimental: as §1, §2, §3

[18] = test system: grain sorghum (Sorghum vulgare, SORVU); conditions: post-emergence, read-out: Effect (% visual injury) Obs
Experimental: as §1, §2, §3

[19] = test system: kochia (Kochia scoparia, KCHSC); conditions: Tralkoxydim 200 g ai/ha
Experimental: as §4, §5, §3

Work on `CCCCOC(=O)[C@@H](C)Oc1ccc(Oc2ccc(C(F)(F)F)cn2)cc1` [Fluazifop-butyl] yielded a plant injury at 105 g/ha [1] of 90%, a pest or weed control at 105 g/ha [2] of 97% and a pest or weed control at 105 g/ha [3] of 95%. It also gave a pest or weed control at 105 g/ha [4] of 0%, a pest or weed control at 105 g/ha [5] of 100% and a pest or weed control at 105 g/ha [6] of 20%. It also gave a pest or weed control at 105 g/ha [7] of 0%, a plant injury at 105 g/ha [8] of 85% and a pest or weed control at 105 g/ha [9] of 0%. For the same compound, the pest or weed control at 105 g/ha [10] was 0%, the plant injury at 105 g/ha (maize (Zea mays, ZEAMX)) was 100% and the pest or weed control at 105 g/ha [11] was 95%. For the same compound, the “Effect (% visual injury) Obs” value ([12]; Fluazifop-butyl 105 g ai/ha) was 0%, the pest or weed control at 105 g/ha [13] was 0% and the plant injury at 105 g/ha [14] was 0%.
`COC(=O)C(C)Oc1ccc(Oc2ccc(Cl)cc2Cl)cc1` (stereo not shown) [Diclofop-methyl] showed a plant injury at 280 g/ha [1] of 0%, a pest or weed control at 280 g/ha [2] of 60% and a pest or weed control at 280 g/ha [4] of 0%. It also gave a pest or weed control at 280 g/ha [5] of 100%, a pest or weed control at 280 g/ha [7] of 0% and a plant injury at 280 g/ha [8] of 40%. It also gave a pest or weed control at 280 g/ha [9] of 0%, a pest or weed control at 280 g/ha [10] of 0% and a plant injury at 280 g/ha [15] of 0%. It also gave a pest or weed control at 280 g/ha [16] of 0%, a pest or weed control at 280 g/ha [13] of 0% and a plant injury at 280 g/ha [14] of 0%.
`CCON=C(CC)C1=C(O)CC(c2c(C)cc(C)cc2C)CC1=O` (stereo not shown) [Tralkoxydim, 2-[1-(ethoxyimino)propyl]-3-hydroxy-5-mesitylcyclohex-2-enone] showed a plant injury at 200 g/ha [17] of 0%, a pest or weed control at 200 g/ha [2] of 0% and a pest or weed control at 200 g/ha [3] of 50%. The pest or weed control at 200 g/ha [4] was 5%, the pest or weed control at 200 g/ha [5] was 30% and the pest or weed control at 200 g/ha [7] was 0%. The plant injury at 200 g/ha [18] was 60%, the plant injury at 200 g/ha [8] was 75% and the pest or weed control at 200 g/ha [9] was 0%. For the same compound, the pest or weed control at 200 g/ha [10] was 0%, the plant injury at 200 g/ha (maize (Zea mays, ZEAMX)) was 100% and the pest or weed control at 200 g/ha [11] was 100%. The pest or weed control at 200 g/ha [16] was 5%, the “Effect (% visual injury) Obs” value [19] was 0% and the “Effect (% visual injury) Obs” value ([12]; Tralkoxydim 200 g ai/ha) was 0%. The pest or weed control at 200 g/ha [13] was 10% and the plant injury at 200 g/ha [14] was 0%.
Work on `CCCCOC(=O)[C@@H](C)Oc1ccc(Oc2ccc(C#N)cc2F)cc1` [Cyhalofop-butyl] yielded a plant injury at 180 g/ha [1] of 0%, a pest or weed control at 180 g/ha [2] of 90% and a pest or weed control at 180 g/ha [3] of 85%. For the same compound, the pest or weed control at 180 g/ha [4] was 0%, the pest or weed control at 180 g/ha [5] was 100% and the pest or weed control at 180 g/ha [7] was 0%. For the same compound, the plant injury at 180 g/ha [18] was 95%, the plant injury at 180 g/ha [8] was 0% and the pest or weed control at 180 g/ha [9] was 0%. For the same compound, the pest or weed control at 180 g/ha [10] was 0%, the plant injury at 180 g/ha (maize (Zea mays, ZEAMX)) was 95% and the pest or weed control at 180 g/ha [11] was 90%. It also gave a plant injury at 180 g/ha [15] of 0% and a plant injury at 180 g/ha [14] of 0%.
